Measured values: the NIST ThermoML archive (doi:10.1016/j.tca.2015.06.017)

Assay: xn = mol fraction of the nth substance listed
Conditions: Liquid, Vibrating tube method

CC(C)CCl [1-chloro-2-methylpropane] + CCCCCCC
Conditions | mass density [kg/m3]
303.15 K, 50000 kPa, x2 = 0.2009 | 860.41
303.15 K, 50000 kPa, x2 = 0.3009 | 837.32
303.15 K, 50000 kPa, x2 = 0.3981 | 816.52
303.15 K, 50000 kPa, x2 = 0.4986 | 796.41
303.15 K, 50000 kPa, x2 = 0.5998 | 777.65
303.15 K, 50000 kPa, x2 = 0.7038 | 759.78
303.15 K, 50000 kPa, x2 = 0.7993 | 744.45
303.15 K, 50000 kPa, x2 = 0.8995 | 729.47
303.15 K, 50000 kPa, x2 = 0.9507 | 722.23
303.15 K, 60000 kPa, x2 = 0.0531 | 905.4
303.15 K, 60000 kPa, x2 = 0.1023 | 892.33
303.15 K, 60000 kPa, x2 = 0.2009 | 867.48
303.15 K, 60000 kPa, x2 = 0.3009 | 844.24
303.15 K, 60000 kPa, x2 = 0.3981 | 823.28
303.15 K, 60000 kPa, x2 = 0.4986 | 803.13
303.15 K, 60000 kPa, x2 = 0.5998 | 784.27
303.15 K, 60000 kPa, x2 = 0.7038 | 766.25
303.15 K, 60000 kPa, x2 = 0.7993 | 750.88
303.15 K, 60000 kPa, x2 = 0.8995 | 735.73
303.15 K, 60000 kPa, x2 = 0.9507 | 728.44
303.15 K, 65000 kPa, x2 = 0.0531 | 908.87
303.15 K, 65000 kPa, x2 = 0.1023 | 895.79
303.15 K, 65000 kPa, x2 = 0.2009 | 870.84
303.15 K, 65000 kPa, x2 = 0.3009 | 847.58
303.15 K, 65000 kPa, x2 = 0.3981 | 826.58
303.15 K, 65000 kPa, x2 = 0.4986 | 806.34
303.15 K, 65000 kPa, x2 = 0.5998 | 787.42
303.15 K, 65000 kPa, x2 = 0.7038 | 769.32
303.15 K, 65000 kPa, x2 = 0.7993 | 753.84
303.15 K, 65000 kPa, x2 = 0.8995 | 738.7
303.15 K, 65000 kPa, x2 = 0.9507 | 731.35
313.15 K, 100 kPa, x2 = 0.0531 | 840.36
313.15 K, 100 kPa, x2 = 0.1023 | 827.85
313.15 K, 100 kPa, x2 = 0.2009 | 804.22
313.15 K, 100 kPa, x2 = 0.3009 | 782.2
313.15 K, 100 kPa, x2 = 0.3981 | 762.38
313.15 K, 100 kPa, x2 = 0.4986 | 743.42
313.15 K, 100 kPa, x2 = 0.5998 | 725.7
313.15 K, 100 kPa, x2 = 0.7038 | 708.77
313.15 K, 100 kPa, x2 = 0.7993 | 694.32
313.15 K, 100 kPa, x2 = 0.8995 | 680.21
313.15 K, 100 kPa, x2 = 0.9507 | 673.34
313.15 K, 2000 kPa, x2 = 0.0531 | 842.7
313.15 K, 2000 kPa, x2 = 0.1023 | 830.21
313.15 K, 2000 kPa, x2 = 0.2009 | 806.67
313.15 K, 2000 kPa, x2 = 0.3009 | 784.62
313.15 K, 2000 kPa, x2 = 0.3981 | 764.76
313.15 K, 2000 kPa, x2 = 0.4986 | 745.75
313.15 K, 2000 kPa, x2 = 0.5998 | 727.98
313.15 K, 2000 kPa, x2 = 0.7038 | 711.05
313.15 K, 2000 kPa, x2 = 0.7993 | 696.57
313.15 K, 2000 kPa, x2 = 0.8995 | 682.44
313.15 K, 2000 kPa, x2 = 0.9507 | 675.59
313.15 K, 5000 kPa, x2 = 0.0531 | 846.39
313.15 K, 5000 kPa, x2 = 0.1023 | 833.87
313.15 K, 5000 kPa, x2 = 0.2009 | 810.25
313.15 K, 5000 kPa, x2 = 0.3009 | 788.13
313.15 K, 5000 kPa, x2 = 0.3981 | 768.2
313.15 K, 5000 kPa, x2 = 0.4986 | 749.13
313.15 K, 5000 kPa, x2 = 0.5998 | 731.29
313.15 K, 5000 kPa, x2 = 0.7038 | 714.28
313.15 K, 5000 kPa, x2 = 0.7993 | 699.76
313.15 K, 5000 kPa, x2 = 0.8995 | 685.54
313.15 K, 5000 kPa, x2 = 0.9507 | 678.7
313.15 K, 7000 kPa, x2 = 0.0531 | 848.82
313.15 K, 7000 kPa, x2 = 0.1023 | 836.28
313.15 K, 7000 kPa, x2 = 0.2009 | 812.64
313.15 K, 7000 kPa, x2 = 0.3009 | 790.49
313.15 K, 7000 kPa, x2 = 0.3981 | 770.54
313.15 K, 7000 kPa, x2 = 0.4986 | 751.42
313.15 K, 7000 kPa, x2 = 0.5998 | 733.56
313.15 K, 7000 kPa, x2 = 0.7038 | 716.53
313.15 K, 7000 kPa, x2 = 0.7993 | 701.96
313.15 K, 7000 kPa, x2 = 0.8995 | 687.72
313.15 K, 7000 kPa, x2 = 0.9507 | 680.86
313.15 K, 10000 kPa, x2 = 0.0531 | 852.24
313.15 K, 10000 kPa, x2 = 0.1023 | 839.68
313.15 K, 10000 kPa, x2 = 0.2009 | 815.97
313.15 K, 10000 kPa, x2 = 0.3009 | 793.76
313.15 K, 10000 kPa, x2 = 0.3981 | 773.76
313.15 K, 10000 kPa, x2 = 0.4986 | 754.58
313.15 K, 10000 kPa, x2 = 0.5998 | 736.65
313.15 K, 10000 kPa, x2 = 0.7038 | 719.62
313.15 K, 10000 kPa, x2 = 0.7993 | 705.01
313.15 K, 10000 kPa, x2 = 0.8995 | 690.72
313.15 K, 10000 kPa, x2 = 0.9507 | 683.8
313.15 K, 20000 kPa, x2 = 0.0531 | 863.01
313.15 K, 20000 kPa, x2 = 0.1023 | 850.29
313.15 K, 20000 kPa, x2 = 0.2009 | 826.35
313.15 K, 20000 kPa, x2 = 0.3009 | 804.06
313.15 K, 20000 kPa, x2 = 0.3981 | 783.83
